Tested on: patients with advanced solid tumors
Test: Phase 1 trial: adverse events (CTCAE), DLT and MTD
Assay type: in vivo, human
Experimental: The phase 1 trial was a two-part, multicenter, open-label, nonrandomized study to evaluate the safety and preliminary efficacy of HA121-28.
Safety, tolerability, and PK of HA121-28 was assessed in dose-escalation part. The single-patient accelerated titration was carried out at 25 mg and 50 mg; then, the dose escalation proceeded according to a “3 + 3” design in dose range of 100 to 800 mg. Escalation to a higher dose level was considered by the satisfactory review of safety results from the previous lower dose during the first cycle.
The dose-expansion part aims to further access the safety and efficacy of HA121-28 at the selected doses based on data from the dose-escalation part. The RP2D was determined by investigators in view of a thorough review of safety, PK, and efficacy results.
In phase 1 trial, during the dose-escalation part, patients first administered HA121-28 in a single ascending dose under the fasted state, then followed up for seven days. Then, patients received ascending doses of HA121-28 (q.d.) on a 21-day on and 7-day off treatment scheme for a 28-day cycle. For patients deemed beneficial from the treatment by investigators, treatment could remain until disease progression, or they discontinued from the study. In the dose-expansion part of phase 1, as well as phase 2, patients received HA121-28 (q.d.) at the selected doses on a 21-day on and 7-day off treatment scheme until disease progression, or they discontinued from the study.
Treatment-emergent adverse events (TEAEs) were documented during the entire study period. The predefined adverse event of special interest (AESI) was ≥ grade 3 prolonged QT interval. Tumor imaging was performed using contrast-enhanced computed tomography or magnetic resonance imaging at screening, Day 28 of the first cycle, then approximately every eight weeks till the end of the study for phase 1; in phase 2, imaging was scheduled at screening, and every eight weeks during the first 40 weeks, followed by every 12 weeks for the rest of the study period. RECIST 1.1 was used by the independent review committee or investigators for assessment of tumor response. After the original assessment, a repeated assessment was required around four weeks later to confirm a complete or partial response.
The primary endpoints of phase 1 were to investigate the MTD, dose-limiting toxicities, and the incidence and severity of TEAEs. Each TEAE was graded according to the Common Terminology Criteria for Adverse Events (CTCAE, version 5.0) and coded by Medical Dictionary for Regulatory Activities (MedDRA, version 21.0). The secondary endpoints included calculating PK parameters, assessing the ORR and DCR at the recommended dose by investigators as per RECIST 1.1. The exploratory endpoint was PFS.
If grade 2 or higher toxicity related to the study drug occurs in Groups 1 and 2 (as determined by the investigator), dose escalation will proceed using a 3+3 design starting from that dose level. If no DLT is observed at the 800 mg/d dose level after dose escalation, a meeting of investigators will be convened to decide whether to proceed with further dose escalation based on the available PK data, safety, and tolerability information.
5. Definition of DLT and MTD
The following events related to the study drug (including those that are definitely related, highly likely to be related, and possibly related):
(1) Grade 4 hematologic toxicity or grade 3 neutropenia accompanied by a fever of 38.5℃ or higher, or grade 3 thrombocytopenia accompanied by severe bleeding.
(2) Patients who discontinued the medication for more than 7 days due to unresolved toxicity reactions or who discontinued the medication more than twice due to toxicity […]
(3) In the context of supportive treatment, diarrhea of grade 2 lasting more than 7 days, or grade 3 diarrhea lasting more than 3 days.

[1] = Phase 1 Study, patient 5 with Grade 3 QTc prolongation
[2] = Phase 1 Study, patient 9 with Grade 3 QTc prolongation

## COc1cc2c(Nc3ccc(Br)cc3F)ncnc2cc1OCCCCN(C)C.Cl.Cl [HA121-28, N-(4-bromo-2-fluorophenyl)-7-(4-(dimethylamino)butoxy)-6-methoxy quinazolin-4-amine dihydrochloride]
Phase 1, 800 mg (N=3)
  Serious TEAE: Headache: 0 No. (%)
  Serious TEAE: Hemoptysis: 0 No. (%)
  Serious TEAE: Hydronephrosis: 0 No. (%)
  Serious TEAE: Hypertension: 0 No. (%)
  Serious TEAE: Hypoalbuminemia: 0 No. (%)
  Serious TEAE: Intestinal obstruction: 0 No. (%)
  Serious TEAE: Intra-abdominal fluid collection: 0 No. (%)
  Serious TEAE: Intracranial tumor hemorrhage: 0 No. (%)
  Serious TEAE: Liver injury: 0 No. (%)
  Serious TEAE: Lung adenocarcinoma: 0 No. (%)
  Serious TEAE: Malignant neoplasm progression: 0 No. (%)
  Serious TEAE: Multiple organ dysfunction syndrome: 0 No. (%)
  Serious TEAE: Nausea: 0 No. (%)
  Serious TEAE: Nephrolithiasis: 0 No. (%)
  Serious TEAE: Platelet counts decreased: 0 No. (%)
  Serious TEAE: Pleural effusion: 0 No. (%)
  Serious TEAE: Pneumonia: 0 No. (%)
  Serious TEAE: Pneumonitis: 0 No. (%)
  Serious TEAE: Prolonged QT interval: 0 No. (%)
  Serious TEAE: Pulmonary embolism: 0 No. (%)
  Serious TEAE: Pyrexia: 0 No. (%)
  Serious TEAE: Rash: 0 No. (%)
  Serious TEAE: Rectal hemorrhage: 0 No. (%)
  Serious TEAE: Respiratory failure: 0 No. (%)
  Serious TEAE: Seizure: 0 No. (%)
  Serious TEAE: Septic shock: 0 No. (%)
  Serious TEAE: Sudden cardiac arrest: 0 No. (%)
  Serious TEAE: Sudden death: 0 No. (%)
  Serious TEAE: Upper respiratory tract infection: 0 No. (%)
  Serious TEAE: Ventricular tachycardia: 0 No. (%)
  Serious TEAE: Vomiting: 0 No. (%)
  Serious TEAE: Weight loss: 1 (33.3) No. (%)
  Serious TRAE: ALT increased: 0 No. (%)
  Serious TRAE: AST increased: 0 No. (%)
  Serious TRAE: Abdominal Pain: 0 No. (%)
  Serious TRAE: Abdominal distension: 0 No. (%)
  Serious TRAE: Acute cholecystitis: 0 No. (%)
  Serious TRAE: Acute pancreatitis: 0 No. (%)
  Serious TRAE: Anal abscess: 0 No. (%)
  Serious TRAE: Any: 1 (33.3) No. (%)
  Serious TRAE: Aortic intramural hematoma: 0 No. (%)
  Serious TRAE: Arrhythmia: 0 No. (%)
  Serious TRAE: Blood bilirubin increased: 0 No. (%)
  Serious TRAE: Blood creatinine increased: 0 No. (%)
  Serious TRAE: COVID-19: 0 No. (%)
  Serious TRAE: Cardiac tamponade: 0 No. (%)
  Serious TRAE: Coronary artery atherosclerosis: 0 No. (%)
  Serious TRAE: Death: 0 No. (%)
  Serious TRAE: Diarrhea: 0 No. (%)
  Serious TRAE: Drug eruption: 0 No. (%)
  Serious TRAE: Dyspnea: 0 No. (%)
  Serious TRAE: Embolism: 0 No. (%)
  Serious TRAE: Erythema multiforme: 0 No. (%)
  Serious TRAE: Headache: 0 No. (%)
  Serious TRAE: Hemoptysis: 0 No. (%)
  Serious TRAE: Hydronephrosis: 0 No. (%)
  Serious TRAE: Hypertension: 0 No. (%)
  Serious TRAE: Hypoalbuminemia: 0 No. (%)
  Serious TRAE: Intestinal obstruction: 0 No. (%)
  Serious TRAE: Intra-abdominal fluid collection: 0 No. (%)
  Serious TRAE: Intracranial tumor hemorrhage: 0 No. (%)
  Serious TRAE: Liver injury: 0 No. (%)
  Serious TRAE: Lung adenocarcinoma: 0 No. (%)
  Serious TRAE: Malignant neoplasm progression: 0 No. (%)
  Serious TRAE: Multiple organ dysfunction syndrome: 0 No. (%)
  Serious TRAE: Nausea: 0 No. (%)
  Serious TRAE: Nephrolithiasis: 0 No. (%)
  Serious TRAE: Platelet counts decreased: 0 No. (%)
  Serious TRAE: Pleural effusion: 0 No. (%)
  Serious TRAE: Pneumonia: 0 No. (%)
  Serious TRAE: Pneumonitis: 0 No. (%)
  Serious TRAE: Prolonged QT interval: 0 No. (%)
  Serious TRAE: Pulmonary embolism: 0 No. (%)
  Serious TRAE: Pyrexia: 0 No. (%)
  Serious TRAE: Rash: 0 No. (%)
  Serious TRAE: Rectal hemorrhage: 0 No. (%)
  Serious TRAE: Respiratory failure: 0 No. (%)
  Serious TRAE: Seizure: 0 No. (%)
  Serious TRAE: Septic shock: 0 No. (%)
  Serious TRAE: Sudden cardiac arrest: 0 No. (%)
  Serious TRAE: Sudden death: 0 No. (%)
  Serious TRAE: Upper respiratory tract infection: 0 No. (%)
  Serious TRAE: Ventricular tachycardia: 0 No. (%)
  Serious TRAE: Vomiting: 0 No. (%)
  Serious TRAE: Weight loss: 1 (33.3) No. (%)
Phase 1 Study, patient 1 with Grade 3 QTc prolongation
  Grade of cardiac TEAE: Cardiopalmus: 2
Phase 1 Study, patient 2 with Grade 3 QTc prolongation
  Grade of cardiac TEAE: Bradycardia: 1
Phase 1 Study, patient 3 with Grade 3 QTc prolongation
  Grade of cardiac TEAE: nodal tachycardia: 1
Phase 1 Study, patient 4 with Grade 3 QTc prolongation
  Grade of cardiac TEAE: T wave anomaly: 1
[1]
  Grade of cardiac TEAE: Complete right bundle branch block: 1
  Grade of cardiac TEAE: Incomplete right bundle branch block: 1
  Grade of cardiac TEAE: sinus bradycardia: 1
Phase 1 Study, patient 6 with Grade 3 QTc prolongation
  Grade of cardiac TEAE: T wave anomaly: 1
Phase 1 Study, patient 7 with Grade 3 QTc prolongation
  Grade of cardiac TEAE: Ventricular arrhythmia: 4
Phase 1 Study, patient 8 with Grade 3 QTc prolongation
  Grade of cardiac TEAE: ST-T wave changes: 1
[2]
  Grade of cardiac TEAE: Abnormal Q wave of III and aVF leads: 2
  Grade of cardiac TEAE: Atrial premature beats: 1
  Grade of cardiac TEAE: ST-T wave changes: 1
  Grade of cardiac TEAE: T wave anomaly: 1
Once daily, phase 1 dose escalation
  maximum tolerated dose (MTD): 600 mg
Phase 1
  AESI leading to dose interruption: 10.6%
  AESI leading to permanent discontinuation: 0.6%
  grade ≥ 3 TEAE diarrhea: 8.1%
  grade ≥ 3 TEAE prolonged QT interval (AESI): 15.0%
  grade ≥ 3 TEAE rash: 5.6%
  patients with at least one TEAE: 99.4%
  patients with at least one TRAE: 98.1%
  patients with grade ≥ 3 TEAEs: 48.8%
  patients with grade ≥3 TRAEs: 40.0%
  patients with treatment-related SAEs: 14.4%
  treatment-related SAE rash: 2.5%
Phase 1, all grades
  TEAE diarrhea: 78.8%
  TEAE prolonged QT interval: 50.0%
  TEAE rash: 57.5%
q.d., 21-day on/7-day off
  recommended phase 2 dose (RP2D): 450 mg

From publication PMC11868595, “Safety, pharmacokinetics and efficacy of HA121-28 in patients with advanced solid tumors and RET fusion-positive non-small-cell lung cancer: a multicenter, open-label, single-arm phase 1/2 trial” (Signal Transduction and Targeted Therapy, 2025)
